Laboratory results reported in patent US20230201232A1, “COMPOSITION FOR AMELIORATION, PREVENTION OR TREATMENT OF HAIR LOSS, COMPRISING CATECHIN 7-O-beta-D-APIOFURANOSIDE AS ACTIVE INGREDIENT” (ANPOLY INC., priority 2020, published 2023).

What was measured:
[1] = tested on: production of dihydrotestosterone (DHT) from testosterone in dermal papilla cells (HFDPC); assay: Dihydrotestosterone production inhibitory activity assay (DHT ELISA); format: cell-based, human; details: HFDPC treated with 20 nM testosterone; compound at 125 µg/ml, 150 µg/ml, 1100 µg/ml; FIG. 3
Protocol: (§1) HFDPC cells were inoculated in a papilla cell-specific medium (PromoCell, Heidelberg, Germany or Cell biologics Inc, IL, USA) recommended by the supplier, subcultured for 24 to 48 hours at 37° C. and 5% CO2 conditions, and used for experiments.
Quantitative analysis of dihydrotestosterone (DHT) was performed by immunochemical quantitative analysis using an ELISA kit. A DHT assay ELISA kit was purchased from Alpco (NH, USA) and used. The experiment using the kit was performed according to the instructions provided by the manufacturer, and the result was derived by converting the amount of antigen (pg/µg) per volume (ml) of cell lysate into a concentration unit.

Bax = assay: Western blot, Bax protein expression in H2O2-treated dermal papilla cells; format: cell-based, human; details: HFDPC, 600 µM H2O2, pretreatment with compound at each concentration; FIG. 4
Protocol: as §1
(§2) After treating the dermal papilla cells (HFDPC) with H2O2 and the sample, the cells were collected at each time zone and the cells were lysed in a cell lysis buffer (RIPA buffer). After the sample was centrifuged at 13,000 g for about 10 to 15 minutes, only the supernatant was taken. The protein concentration of the supernatant was measured by a BCA protein assay kit (Bio-Rad, CA, USA) and then heated at 95° C. for 10 minutes. The prepared sample was electrophoresed on SDS-polyacrylamide gel, transferred to a polyvinylidenedifluoride membrane (PVDF, Bio-rad, CA, USA), blocked with 5% BSA, and reacted with the indicated specific antibody. Then, HRP-conjugated secondary antibody (Santacruz, CA, USA) was reacted with the sample and detected by ECL system (Bio-Rad, MO, USA). As primary antibodies against Bax-1, Bcl-2, PARP-1, and β-actin, Santacruz antibodies (CA, USA) were used.

Bcl-2 = assay: Western blot, Bcl-2 protein expression in H2O2-treated dermal papilla cells; format: cell-based, human; details: HFDPC, 600 µM H2O2, compound at each concentration; FIG. 4
Protocol: as §1, §2

PARP-1 = assay: Western blot, PARP-1 protein expression in H2O2-treated dermal papilla cells; format: cell-based, human; details: HFDPC, 600 µM H2O2, compound at each concentration; FIG. 4
Protocol: as §1, §2

IGF-1 = assay: ELISA, IGF-1 expression in H2O2-treated dermal papilla cells; format: cell-based, human; details: FIG. 5A
Protocol: as §1
(§3) An ELISA kit was purchased and used to perform immunochemical quantitative analysis related to hair growth promotion and hair loss inhibition. TGF-β and IGF-1 kits were purchased from R&D systems (CA, USA) and used. The test was conducted using each kit according to the supplier’s manual, and the result was derived by converting the amount (pg or µg) of antigen per volume (ml) of cell lysate into a concentration unit.

TGF-β1 = assay: ELISA, TGF-β1 expression in H2O2-treated dermal papilla cells; format: cell-based, human; details: FIG. 5B
Protocol: as §1, §3

[2] = tested on: dermal papilla cells (HFDPC); details: H2O2 at 600 µM

OC[C@@]1(O)COC(Oc2cc(O)c3c(c2)O[C@H](c2ccc(O)c(O)c2)[C@@H](O)C3)[C@@H]1O (stereo in doubt) [catechin 7-O-β-D-apiofuranoside]
inhibition of DHT production [1]: effect of inhibiting DHT production was statistically significant in a concentration-dependent manner
expression of Bax (Bax): expression of Bax was significantly reduced in a concentration-dependent manner
expression of Bcl-2 (Bcl-2): significantly increased the expression of Bcl-2 in a concentration-dependent manner
protein expression level of PARP-1 (PARP-1): significantly inhibited the protein expression level of PARP-1 in a concentration-dependent manner
expression of IGF-1 (IGF-1): promote the expression of IGF conducive to hair growth in a concentration-dependent manner
expression of TGF-β1 (TGF-β1): inhibit the expression of TGF-β1 in a concentration-dependent manner

OO [Hydrogen peroxide (H2O2), Hydrogen peroxide]
apoptosis [2]: 50%
